The text below walks through data of ChEMBL document CHEMBL5223100, “Homobivalent, Trivalent, and Covalent PROTACs: Emerging Strategies for Protein Degradation” (J Med Chem, 2022).

The target in data set [1] is T1, Tyrosine-protein kinase Blk (Homo sapiens, UniProt P51451). Briefly: Induction of BLK degradation in human K562 cells assessed as maximum degradation relative to control. The data set is classed as cell-based.
Target sequence in this assay (P51451 2-505 limits assumed): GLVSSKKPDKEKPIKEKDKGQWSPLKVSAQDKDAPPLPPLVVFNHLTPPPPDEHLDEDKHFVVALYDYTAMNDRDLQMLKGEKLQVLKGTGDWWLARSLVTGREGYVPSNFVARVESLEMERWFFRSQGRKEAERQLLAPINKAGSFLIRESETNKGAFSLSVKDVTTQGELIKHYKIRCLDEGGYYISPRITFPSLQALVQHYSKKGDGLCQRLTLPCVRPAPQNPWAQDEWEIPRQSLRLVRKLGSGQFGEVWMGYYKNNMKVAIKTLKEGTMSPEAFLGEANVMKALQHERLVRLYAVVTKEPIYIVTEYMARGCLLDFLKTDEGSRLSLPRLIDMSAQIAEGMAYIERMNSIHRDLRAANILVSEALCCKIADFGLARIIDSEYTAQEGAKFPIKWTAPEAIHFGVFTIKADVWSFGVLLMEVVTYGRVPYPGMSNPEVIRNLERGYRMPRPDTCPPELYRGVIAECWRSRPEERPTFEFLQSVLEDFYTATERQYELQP
For data set [2], the target named is T2, Tyrosine-protein kinase BTK (Homo sapiens, UniProt Q06187). Briefly: Induction of BTK degradation in human K562 cells. It is filed as cell-based.
T2 sequence (Q06187 whole entry): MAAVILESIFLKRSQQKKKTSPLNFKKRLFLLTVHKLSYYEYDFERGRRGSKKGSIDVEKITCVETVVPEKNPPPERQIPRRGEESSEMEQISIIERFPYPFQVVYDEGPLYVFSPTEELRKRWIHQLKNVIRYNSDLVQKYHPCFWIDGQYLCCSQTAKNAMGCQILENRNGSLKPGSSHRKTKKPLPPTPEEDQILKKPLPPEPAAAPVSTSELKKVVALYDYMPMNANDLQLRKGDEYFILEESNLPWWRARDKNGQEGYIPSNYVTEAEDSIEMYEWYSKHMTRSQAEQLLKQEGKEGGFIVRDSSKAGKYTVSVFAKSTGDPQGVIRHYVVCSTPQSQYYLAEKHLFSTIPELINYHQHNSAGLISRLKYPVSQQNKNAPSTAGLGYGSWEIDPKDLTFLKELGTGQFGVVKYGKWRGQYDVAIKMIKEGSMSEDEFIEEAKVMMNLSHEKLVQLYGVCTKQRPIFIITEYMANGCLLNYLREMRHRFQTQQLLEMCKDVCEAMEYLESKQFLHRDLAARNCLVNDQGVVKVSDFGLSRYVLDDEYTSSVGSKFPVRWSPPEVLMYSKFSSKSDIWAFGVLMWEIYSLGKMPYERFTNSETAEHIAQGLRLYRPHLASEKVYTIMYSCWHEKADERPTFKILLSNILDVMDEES
In data set [3] the target is T1, Tyrosine-protein kinase Blk. Description: Induction of BLK degradation in human K562 cells. The data set is classed as cell-based.
Target sequence in this assay (P51451 whole entry): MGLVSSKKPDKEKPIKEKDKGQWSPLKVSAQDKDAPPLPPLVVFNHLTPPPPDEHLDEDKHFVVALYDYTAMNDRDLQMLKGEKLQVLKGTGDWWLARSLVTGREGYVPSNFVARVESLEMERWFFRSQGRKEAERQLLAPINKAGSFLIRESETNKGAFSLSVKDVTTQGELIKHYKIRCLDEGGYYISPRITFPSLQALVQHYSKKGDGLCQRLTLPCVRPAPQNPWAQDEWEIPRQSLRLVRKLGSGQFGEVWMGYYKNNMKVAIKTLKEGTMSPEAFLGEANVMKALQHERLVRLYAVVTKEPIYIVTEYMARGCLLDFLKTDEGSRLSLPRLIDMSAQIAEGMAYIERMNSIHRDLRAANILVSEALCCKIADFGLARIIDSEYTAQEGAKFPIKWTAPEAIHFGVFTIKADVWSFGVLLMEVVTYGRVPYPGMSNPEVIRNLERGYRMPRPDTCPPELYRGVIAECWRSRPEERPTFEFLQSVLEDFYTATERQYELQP
Data set [4] addresses T2, Tyrosine-protein kinase BTK. Briefly: Induction of BTK degradation in human K562 cells assessed as maximum degradation relative to control. The data set is classed as cell-based.
Data set [5] deals with T3, Protein cereblon (Homo sapiens, UniProt Q96SW2). Description: Displacement of dBET6 from CRBN (unknown origin) transfected in BRD4 BD2-GFP mCherry report cells incubated for 5 hrs.
T3 sequence (Q96SW2 whole entry): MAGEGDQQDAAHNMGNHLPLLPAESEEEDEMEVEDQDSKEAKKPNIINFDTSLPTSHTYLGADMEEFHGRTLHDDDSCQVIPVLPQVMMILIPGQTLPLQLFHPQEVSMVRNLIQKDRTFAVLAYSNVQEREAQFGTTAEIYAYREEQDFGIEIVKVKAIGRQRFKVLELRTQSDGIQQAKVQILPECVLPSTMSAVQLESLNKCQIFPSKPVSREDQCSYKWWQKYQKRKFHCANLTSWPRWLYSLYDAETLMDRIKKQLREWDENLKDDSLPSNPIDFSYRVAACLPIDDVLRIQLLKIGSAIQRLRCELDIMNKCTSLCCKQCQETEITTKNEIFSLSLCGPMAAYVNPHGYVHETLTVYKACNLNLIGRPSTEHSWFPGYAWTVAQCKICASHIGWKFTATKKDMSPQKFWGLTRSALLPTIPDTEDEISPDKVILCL
For data set [6], the target named is T3, Protein cereblon. Description: Induction of CRBN degradation in human HeLa cells incubated for 4 hrs. It is filed as cell-based.
Data set [7] has as its target T3, Protein cereblon. Description: Induction of CRBN degradation in human HeLa cells at 1 uM incubated for 4 hrs relative to control. The data set is classed as cell-based.
Data set [8] relates to von Hippel-Lindau disease tumor suppressor/Epidermal growth factor receptor (Homo sapiens), P00533+P40337 [UNDEFINED MUTATION]. Description: Protac activity at VHL/EGFR Del19 mutant in human HCC827 cells assessed as maximum degradation relative to control. It is filed as cell-based.
The next data set relates to NCI-H1975. Description: Antiproliferative activity against human NCI-H1975 cells harboring EGFR L858R/T790M double mutant. It is filed as functional, cell-based.
Data set [9] addresses von Hippel-Lindau disease tumor suppressor/Epidermal growth factor receptor (Homo sapiens, UniProt P00533+P40337). Description: Protac activity at VHL/EGFR Del19 mutant in human HCC827 cells. The data set is classed as cell-based.
Data set [10] has as its system HCC827. Briefly: Antiproliferative activity against human HCC827 cells harboring EGFRDel19 mutant. It is filed as functional, cell-based.
For data set [11], the system named is HCC827. Briefly: Antitumor activity against human HCC827 cells xenografted in mouse assessed as tumor growth inhibition at 30 mg/kg. It is filed as functional. The conditions noted are these: read-out: TGI.
Data set [12] concerns HCT-116. Description: Antiproliferative activity against p53 knockout human HCT-116 cells. It is filed as functional, cell-based.
Data set [13] relates to HCT-116. Description: Antiproliferative activity against human HCT-116 cells. The data set is classed as functional, cell-based.
Data set [14] relates to A549. Description: Antitumor activity against human A549 cells xenografted model assessed as tumor growth inhibition at 30 mg/kg. The data set is classed as functional. The settings on record: read-out: TGI.
Data set [15] deals with A549. Description: Antiproliferative activity against human A549 cells. It is filed as functional, cell-based.
A short description of data set [16]: Half life in mouse. It is filed as ADME, organism-based. The settings on record: in vivo.
For data set [17], the target named is E3 ubiquitin-protein ligase Mdm2 (Homo sapiens, UniProt Q00987). Briefly: Displacement of p53 from human MDM2 by HTRF assay.
Sequence of E3 ubiquitin-protein ligase Mdm2 (Q00987 whole entry): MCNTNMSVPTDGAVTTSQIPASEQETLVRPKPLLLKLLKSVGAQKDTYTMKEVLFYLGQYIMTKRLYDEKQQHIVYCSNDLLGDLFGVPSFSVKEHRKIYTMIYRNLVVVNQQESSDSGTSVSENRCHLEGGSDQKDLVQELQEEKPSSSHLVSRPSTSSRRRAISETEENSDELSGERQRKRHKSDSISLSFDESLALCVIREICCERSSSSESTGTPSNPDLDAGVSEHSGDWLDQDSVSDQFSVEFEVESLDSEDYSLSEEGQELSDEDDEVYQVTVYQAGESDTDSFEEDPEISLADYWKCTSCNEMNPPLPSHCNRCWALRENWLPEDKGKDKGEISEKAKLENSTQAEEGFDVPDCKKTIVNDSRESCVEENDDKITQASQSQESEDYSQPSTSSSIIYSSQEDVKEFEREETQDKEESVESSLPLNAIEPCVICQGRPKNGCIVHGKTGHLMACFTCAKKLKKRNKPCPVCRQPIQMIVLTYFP
Data set [18] is described as follows: AUC in mouse. The settings on record: in vivo. The data set is classed as ADME, organism-based.
Data set [19] concerns the target Cyclin-dependent kinase 9 (Homo sapiens) (UniProt P50750). Briefly: Induction of CDK9 degradation in human MOLT-4 cells assessed as maximum degradation after 16 hrs relative to control. The data set is classed as cell-based.
The test system of the next data set is PC-3. Description: Antiproliferative activity against human PC-3 cells after 72 hrs. The data set is classed as functional, cell-based. The settings on record: PC-3, 72 h.
Another data set concerns CWR22R. Briefly: Antiproliferative activity against human 22Rv1 cells after 72 hrs. It is filed as functional, cell-based. The settings on record: 22Rv1, 72 h.
Another data set deals with MCF7. Briefly: Antitumor activity against human MCF7 cells xenografted in mouse assessed as tumor growth inhibition. The data set is classed as functional.
Data set [20] deals with RPMI-8226. Briefly: Antiproliferative activity against human RPMI-8226 cells. The data set is classed as functional, cell-based.
Data set [21] deals with RPMI-8226. Briefly: Induction of hRpn13Pru degradation in human RPMI-8226 cells assessed as maximum degradation at 50 uM relative to control. It is filed as cell-based.
Data set [22] is described as follows: Induction of hRpn13Pru degradation in human RPMI-8226 cells. It is filed as cell-based.
Data set [23] concerns the target T4, Bromodomain-containing protein 4 (Homo sapiens, UniProt O60885). Description: Induction of BRD4 short isoform degradation in human 231MFP cells. It is filed as cell-based.
In data set [24] the target is T4, Bromodomain-containing protein 4. Description: Induction of BRD4 long isoform degradation in human 231MFP cells. The data set is classed as cell-based.
Data set [25] addresses Bromodomain-containing protein 2 (Homo sapiens, UniProt P25440). Description: Induction of BRD2 degradation in HEK293 cells after 4 hrs. It is filed as cell-based.
For the next data set, the system named is MV4-11. Briefly: Antiproliferative activity against human MV4-11 cells.
The target of data set [26] is T4, Bromodomain-containing protein 4. Description: Induction of BRD4 degradation in HEK293 cells after 4 hrs. The data set is classed as cell-based.
Data set [27] concerns the target Bromodomain-containing protein 3 (Homo sapiens, UniProt Q15059). Briefly: Induction of BRD3 degradation in HEK293 cells after 4 hrs. The data set is classed as cell-based.

The structures appear in SMILES notation. Where only a bound is given, the exact number is not on record here.

Sequence of Bromodomain-containing protein 2 (P25440 whole entry): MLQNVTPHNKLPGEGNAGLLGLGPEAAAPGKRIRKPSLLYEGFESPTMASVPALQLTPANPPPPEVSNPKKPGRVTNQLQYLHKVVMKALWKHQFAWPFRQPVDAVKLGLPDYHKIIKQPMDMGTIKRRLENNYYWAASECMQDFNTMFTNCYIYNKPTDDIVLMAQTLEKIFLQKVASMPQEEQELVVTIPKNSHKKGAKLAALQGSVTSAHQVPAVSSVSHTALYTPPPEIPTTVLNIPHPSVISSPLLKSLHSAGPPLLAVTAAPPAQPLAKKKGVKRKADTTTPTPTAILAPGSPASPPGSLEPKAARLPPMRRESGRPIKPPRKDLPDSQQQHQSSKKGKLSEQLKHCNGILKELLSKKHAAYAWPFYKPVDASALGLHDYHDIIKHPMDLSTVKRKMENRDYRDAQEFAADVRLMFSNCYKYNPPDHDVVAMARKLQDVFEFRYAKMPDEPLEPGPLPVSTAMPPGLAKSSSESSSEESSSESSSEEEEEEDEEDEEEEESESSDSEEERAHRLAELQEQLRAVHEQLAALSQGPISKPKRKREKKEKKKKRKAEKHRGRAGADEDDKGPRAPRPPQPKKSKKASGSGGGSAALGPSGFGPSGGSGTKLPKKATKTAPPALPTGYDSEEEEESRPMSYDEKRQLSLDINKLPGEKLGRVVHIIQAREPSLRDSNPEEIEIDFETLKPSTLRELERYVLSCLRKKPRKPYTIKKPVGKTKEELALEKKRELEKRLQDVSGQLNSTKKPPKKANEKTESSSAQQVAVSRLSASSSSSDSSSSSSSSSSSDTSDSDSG
Sequence of Cyclin-dependent kinase 9 (Homo sapiens) (P50750 whole entry): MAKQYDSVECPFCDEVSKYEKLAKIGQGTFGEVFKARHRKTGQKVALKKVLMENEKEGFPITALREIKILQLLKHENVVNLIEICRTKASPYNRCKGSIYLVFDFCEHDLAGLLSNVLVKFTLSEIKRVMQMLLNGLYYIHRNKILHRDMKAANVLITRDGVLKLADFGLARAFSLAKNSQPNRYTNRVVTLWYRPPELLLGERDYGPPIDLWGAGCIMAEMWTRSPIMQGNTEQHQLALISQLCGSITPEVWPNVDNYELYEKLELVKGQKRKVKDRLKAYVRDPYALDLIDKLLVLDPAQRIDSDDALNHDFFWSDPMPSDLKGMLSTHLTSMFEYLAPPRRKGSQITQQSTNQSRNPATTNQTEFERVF
Sequence of Bromodomain-containing protein 3 (Q15059 whole entry): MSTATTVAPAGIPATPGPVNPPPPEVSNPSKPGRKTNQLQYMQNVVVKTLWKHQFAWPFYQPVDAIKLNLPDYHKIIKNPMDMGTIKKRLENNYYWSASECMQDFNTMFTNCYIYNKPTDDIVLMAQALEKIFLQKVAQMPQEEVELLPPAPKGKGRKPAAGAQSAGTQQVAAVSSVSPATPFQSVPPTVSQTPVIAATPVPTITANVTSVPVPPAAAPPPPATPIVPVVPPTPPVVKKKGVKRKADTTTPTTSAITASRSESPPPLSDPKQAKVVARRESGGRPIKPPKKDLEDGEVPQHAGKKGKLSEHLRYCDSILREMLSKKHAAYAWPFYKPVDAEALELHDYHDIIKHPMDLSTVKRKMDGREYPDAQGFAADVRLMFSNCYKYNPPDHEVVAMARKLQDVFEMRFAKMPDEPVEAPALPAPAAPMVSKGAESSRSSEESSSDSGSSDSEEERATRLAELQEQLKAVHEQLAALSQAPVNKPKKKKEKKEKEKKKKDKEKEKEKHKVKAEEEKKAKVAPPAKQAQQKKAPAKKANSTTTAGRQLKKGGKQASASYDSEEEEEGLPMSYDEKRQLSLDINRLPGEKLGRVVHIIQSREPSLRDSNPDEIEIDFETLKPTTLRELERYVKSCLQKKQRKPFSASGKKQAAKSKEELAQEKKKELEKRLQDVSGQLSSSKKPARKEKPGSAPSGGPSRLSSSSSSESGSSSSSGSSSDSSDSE

For the compound `C=CC(=O)N1C[C@@H](n2nc(-c3ccc(Oc4ccccc4)cc3)c3c(N)ncnc32)C[C@H]1C(=O)OCCOCCOCC(=O)N[C@H](C(=O)N1C[C@H](O)C[C@H]1C(=O)NCc1ccc(-c2scnc2C)cc1)C(C)(C)C`, the Emax in data set [1] worked out at 75%; in data set [4] it was 88%. Besides, the results for the DC50 in [2] and in [3] were 136 nM and 220 nM, respectively.

Take `C=CC(=O)N1CCN(c2nc(NCCCN3CCN(CCCNc4cccc5c4C(=O)N(C4CCC(=O)NC4=O)C5=O)CC3)nc3c(F)c(-c4cc(O)cc5ccccc45)c(Cl)cc23)CC1` (configuration not stated): at Protein cereblon [5], it took 79 nM to reach a half-maximal effect (EC50).

In turn, `Cc1ncsc1-c1ccc(CNC(=O)[C@@H]2C[C@@H](O)CN2C(=O)[C@@H](NC(=O)COCCCCCOCCOCCCCCOCC(=O)NCCNc2cccc3c2C(=O)N(C2CCC(=O)NC2=O)C3=O)C(C)(C)C)cc1` (some centres not stated) came in with a DC50 at Protein cereblon [6] of 200 nM. In addition, the Emax at Protein cereblon [7] came out at 75%.

As for `Cc1ncsc1-c1ccc(CNC(=O)[C@H]2C[C@H](O)CN2C(=O)[C@H](NC(=O)CCCCCCCCCCn2cc(COc3cc4ncnc(Nc5ccc(F)c(Cl)c5)c4cc3NC(=O)/C=C/N3CCCCC3)nn2)C(C)(C)C)cc1`, the Emax in [8] stood at 91%. Besides, the IC50 was over 20 nM in the data set with NCI-H1975 and 6 nM with HCC827 [10]. For the same compound, in data set [9], the DC50 was determined as 3.57 nM. In addition, the inhibition in vivo at 30 mg/kg in the data set with HCC827 [11] came out at 90%.

Turning to `CCOc1cc(C(C)(C)C)ccc1C1=N[C@@H](c2ccc(Cl)cc2)[C@@H](c2ccc(Cl)cc2)N1C(=O)N1CCN(CC(=O)NCCOCCOCCOCCNC(=O)CN2CCN(C(=O)N3C(c4ccc(C(C)(C)C)cc4OCC)=N[C@H](c4ccc(Cl)cc4)[C@@H]3c3ccc(Cl)cc3)CC2=O)C(=O)C1`, the values for the IC50 in the data set with HCT-116 [12], in the data set on HCT-116 [13] and in the data set with A549 [15] were 21000 nM, 1100 nM and 580 nM, respectively. The inhibition in vivo at 30 mg/kg in the data set with A549 [14] worked out at 52.4%. The half-life in [16] is 9.6 h. For the same compound, the affinity in data set [17], expressed as Ki, was 90 nM. In data set [18], this compound registered an AUC of 42800 ng·h/mL.

For the compound `COc1cc(/C=C/C(=O)N2CCC=CC2=O)cc(OC)c1OCCN1CCN(C(=O)CN2CCC(C(=O)Nc3ncc(SCc4ncc(C(C)(C)C)o4)s3)CC2)CC1`, the Emax in data set [19] was 96%. Further, the EC50 in the data set with PC-3 came to 6.4 nM; in the data set with CWR22R, 4.4 nM.

Consider `Cc1ncsc1-c1ccc(CNC(=O)[C@@H]2C[C@@H](O)CN2C(=O)[C@@H](NC(=O)COCCOCCOCCNC(=O)C[C@@H]2N=C(c3ccc(Cl)cc3)c3c(sc(C)c3C)-n3c(C)nnc32)C(C)(C)C)cc1`, for which the TGI in the data set with MCF7 was 59.8%.

Compound `Cc1ncsc1-c1ccc([C@H](C)NC(=O)[C@@H]2C[C@@H](O)CN2C(=O)[C@@H](NC(=O)CCCCc2cn(-c3ccc(C(=O)Nc4cccc(/C=C(\C#N)C(=O)Nc5ccccc5C(=O)O)c4)cc3)nn2)C(C)(C)C)cc1` had an IC50 with RPMI-8226 [20] of 4200 nM. Moreover, the Emax in the data set on RPMI-8226 [21] worked out at 80%. This compound also gave a DC50 in data set [22] of 39000 nM.

Turning to `Cc1sc2c(c1C)C(c1ccc(Cl)cc1)=N[C@@H](CC(=O)NCCCCOc1ccc(C3CC(c4ccc(Br)cc4)=NN3C(=O)CCl)cc1)c1nnc(C)n1-2` (some centres not stated), the DC50 in data set [23] was found to be 14 nM; in data set [24] it was 36 nM.

Regarding `Cc1ncsc1-c1ccc(CNC(=O)[C@@H]2C[C@@H](O)CN2C(=O)[C@@H](NC(=O)OCC(C)(COCCOCCOCCNC(=O)C[C@@H]2N=C(c3ccc(Cl)cc3)c3c(sc(C)c3C)-n3c(C)nnc32)COCCOCCOCCNC(=O)C[C@@H]2N=C(c3ccc(Cl)cc3)c3c(sc(C)c3C)-n3c(C)nnc32)C(C)(C)C)cc1`, the DC50 in [25] came out at 1.1 nM; in data set [26], 0.7 nM; in data set [27], 3.3 nM. For the same compound, in the data set on MV4-11, the IC50 was found to be 1.1 nM.
